Laboratory results as given in US20050266088A1, “Formulation for fast dissolution of lipophilic compounds” (Rijksuniversiteit Groningen, priority 2002, published 2005).

Assay: Dissolution experiments on tablets (Prolabo dissolution apparatus)
Assay type: physicochemical
Conditions: for dissolution rate of the sugar matrix (Anthrone assay): tablets with diazepam, water, 37° C., 100 rpm
Procedure: After compaction the tablets were weighed and subsequently submitted to dissolution experiments.
Dissolution was performed on a Prolabo dissolution apparatus, Rowa Techniek B.V. All experiments were conducted at 37° C. in 1000 mL under constant stirring with 100 rpm. Tablets prepared from physical mixtures and solid dispersions were analysed in triplicate.
To determine the sugar concentrations the Anthrone assay was used. (Scott et al. 1953) Samples were taken at appropriate intervals during the dissolution. […] Due to the enthalpy of mixing, the sample was heated to its boiling point. The boiling mixture was then cooled to room temperature. After 45 minutes the sample was vortexed and […] of sample was analysed in the plate reader at 630 nm. […] In every Anthrone assay a calibration curve of the appropriate sugar in the appropriate medium was established.

| Compound | release of drug from physical mixture tablets | release of drug from solid dispersion tablets | dissolution rate of the sugar matrix (Anthrone assay) |
| --- | --- | --- | --- |
| CN1C(=O)CN=C(c2ccccc2)c2cc(Cl)ccc21 [diazepam, Diazepam] | fast compared to the solid dispersions | fast release | – |
| OC[C@H]1O[C@H](O[C@H]2O[C@H](CO)[C@@H](O)[C@H](O)[C@H]2O)[C@H](O)[C@@H](O)[C@@H]1O [trehalose] | – | – | dissolve faster compared to the inulins |
| OC[C@H]1O[C@@](CO)(O[C@H]2O[C@H](CO)[C@@H](O)[C@H](O)[C@H]2O)[C@@H](O)[C@@H]1O [sucrose] | – | – | dissolve faster compared to the inulins |
